# Laboratory results reported in publication PMC11251039, “Harnessing cholesterol uptake of malaria parasites for therapeutic applications” (EMBO Molecular Medicine, 2024).
# Values joined by “and” are separate entries in the source; they are usually repeats but may differ in a detail not shown here. Equal entries are not always repeated.
# Key:
# [1] = system: Toxoplasma gondii tachyzoites (RH strain); assay: Toxoplasma growth inhibition assay (tdTomato fluorescence, in HFF cells); assay type: cell-based; conditions: 72 h
# Description: Fluorescence was measured daily with a fluorescence microplate reader for one week, and the background fluorescence from the time 0 reading was subtracted from all other measurements. […]
# Toxoplasma Growth Inhibition Assays:
# Growth inhibition was investigated as described previously (26). Fluorescent Toxoplasma gondii parasites were inoculated into an optical bottom 96-well plate containing confluent human foreskin fibroblast (HFF) host cells at a density of 2,000 parasites/well, with a serial dilution of each compound, or culture media/DMSO (0.1% v/v) alone. Plates were measured daily with a FluoStar Optima fluorescence plate reader at 540 nm excitation and 590 nm emission for one week, and the background fluorescence from the time 0 reading was subtracted from all other measurements. […]
# [2] = system: P. falciparum stage III–IV gametocytes; assay: P. falciparum gametocyte viability assay (MitoTracker, flow cytometry), stage III-IV; assay type: cell-based, Plasmodium falciparum; conditions: 48 h; for Gametocyte stage III-IV viability, percentage of control: replicate values, source data Fig. 2C, listed as BC5B
# Description: (§1) Gametocyte assays commenced seven days (stage III–IV) or ten days (stage V) post-invasion. […]
# (§2) Plasmodium falciparum Gametocyte Viability Assays:
# (§3) Asexual P. falciparum parasites were induced to form gametocytes as described (21).
# (§4) Synchronized trophozoite-stage parasites at 2% parasitaemia were incubated overnight and […]
# (§5) haematocrit maintained at 4%. On the subsequent day (designated as day 0) of gametocytogenesis, the culture containing early ring-stage parasites was first purified by sorbitol synchronisation to remove asynchronous trophozoites, and passed through a magnetic field in a sterile MACS® column in a SuperMACSTM II magnet to remove remaining late-stage parasites or later-stage gametocytes (negative selection). The culture medium was supplemented with 50 mM N-acetyl-D-glucosamine to inhibit asexual parasite proliferation, and changed daily. Sorbitol treatment was performed on Day 1, 5, and 6 to further remove asexual parasites. Gametocytes were magnetically enriched (positive selection) in a sterile column with a SuperMACSTM II magnet and eluted in culture media with 50 mM N-acetyl-D-glucosamine. These gametocytes were incubated overnight at 37 °C under microaerophilic conditions, and purity was assessed by examination under a light microscope (400× […]
# (§6) Gametocyte viability was assessed as described by Ridgway et al. (21) with modifications.
# (§7) Compounds or solvent controls (DMSO) were serially diluted across 96-well plates in culture media supplemented with 50 mM N-acetyl-D-glucosamine. Culture media without compound was used as a negative control. […]
# (§8) control to determine background gametocyte fluorescence. Stage III-IV gametocytes (Day 7) or stage V (day 10) gametocytes were concentrated and added to the plate with 200 µL per well. The plate was incubated for 48 hours at 37 °C under humid microaerophilic conditions.
# (§9) Parasites were then stained with 500 nM MitoTrackerTM Deep Red FM and 5 μg/ml Hoechst […]
# (§10) cytometer as described above. […]
# (§11) excluded. Live (positive) and dead (negative) gametocytes were differentiated by […]
# (§12) percentage of each was calculated. […]
# [3] = system: P. falciparum stage V gametocytes; assay: P. falciparum gametocyte viability assay (MitoTracker, flow cytometry), stage V; assay type: cell-based, Plasmodium falciparum; conditions: 48 h
# Description: as §1, §2, §3, §4, §5, §6, §7, §8, §9, §10, §11, §12
# P. berghei liver stages = assay: Plasmodium berghei liver stage growth inhibition assay (luminescence, in Huh7 cells); conditions: for P. berghei liver stage growth, dose-response data points (Figure 3A): replicate data points; for P. berghei liver stage growth, dose-response data points (Figure 3A) / Figure 3E dose-response value (replicates): listed as BC5B
smiles,measurement,setting,value
COc1cc(NC(C)CCCNC(=O)CCC(=O)O[C@H]2CC[C@H]3[C@@H]4CC=C5C[C@@H](O)CC[C@]5(C)[C@H]4CC[C@]23C)c2ncccc2c1 (some centres unmarked) [C-17-PQ],Fold difference in IC50 to primaquine,[1]; listed as steroid-primaquine conjugate,~ 3.5 fold and 3 fold
same,IC50,"[1]; Toxoplasma gondii, HFF, read-out: IC50, T. gondii tachyzoite growth inhibition",2.8 µM
same,"Gametocyte stage III-IV viability, percentage of control","[2]; 0.390625000 uM, 0.390625 µM",106.6% and 106.4% and 106.3% and 105.9% and 97.84% and 98.56% and 99.18% and 96.09% and 94.81% and 99.34% and 96.51%
same,"Gametocyte stage III-IV viability, percentage of control","[2]; 0.781250000 uM, 0.78125 µM",105.6% and 103.6% (2×) and 99.85% and 95.38% and 98.97% and 96.71% and 98.76% and 95.09% and 98.49% and 100.2%
same,"Gametocyte stage III-IV viability, percentage of control","[2]; 1.562500000 uM, 1.5625 µM",98.2% and 92.41% and 99.85% and 96.05% and 86.9% and 96.5% and 96.91% and 95.26% and 86.31% and 88.01% and 87.16%
same,"Gametocyte stage III-IV viability, percentage of control","[2]; 3.125000000 uM, 3.125 µM",76.23% and 73.04% and 83.77% and 78.85% and 72.15% and 82.91% and 79.82% and 79.41% and 67.61% and 67.33% and 65.91%
same,"Gametocyte stage III-IV viability, percentage of control","[2]; 6.250000000 uM, 6.25 µM",47.47% and 48.87% and 53.06% and 57.19% and 51.38% and 37.08% and 52.02% and 49.97% and 47.91% and 50.9% (2×) and 52.03%
same,"Gametocyte stage III-IV viability, percentage of control","[2]; 12.500000000 uM, 12.5 µM",32.49% and 39.99% and 32.61% and 29.26% and 32.88% and 27.73% and 25.88% and 43.81%
same,"Gametocyte stage III-IV viability, percentage of control",[2]; 25.000000000 uM,17.71% and 16.11% and 15.11% and 33.28% and 21.89% and 14.3% and 17.64% and 12.08% and 12.7% and 13.79% and 6.704% and 7.271%
same,"Gametocyte stage III-IV viability, percentage of control",[2]; 50.000000000 uM,5.639% and 8.492% and 6.658% and 16.42% and 3.442% and -2.383% and -3.188% and -11.09% and -14.21% and 3.059% and -3.824% and -12.14%
same,"Gametocyte stage III-IV viability, percentage of control",[2]; 100.000000000 uM,3.289% and 0.9211% and -0.4605% and 9.774% and -7.24% and -17.63% and -19.17% and -25.26% and -26.31% and -15.93% and -26.87% and -31.48%
same,Fold reduction in IC50 compared to primaquine alone,[2],9 fold
same,viability at 0.390625 µM,"[2]; Plasmodium falciparum, read-out: Gametocyte stage III-IV viability, percentage of control, 0.390625000 uM, 48 h, replicate values, source data Fig. 2C",105%
same,viability at 0.78125 µM,"[2]; Plasmodium falciparum, read-out: Gametocyte stage III-IV viability, percentage of control, 0.781250000 uM, 48 h, replicate values, source data Fig. 2C",101%
same,viability at 1.5625 µM,"[2]; Plasmodium falciparum, read-out: Gametocyte stage III-IV viability, percentage of control, 1.562500000 uM, 48 h, replicate values, source data Fig. 2C",95%
same,viability at 3.125 µM,"[2]; Plasmodium falciparum, read-out: Gametocyte stage III-IV viability, percentage of control, 3.125000000 uM, 48 h, replicate values, source data Fig. 2C",72.4%
same,viability at 12.5 µM,"[2]; Plasmodium falciparum, read-out: Gametocyte stage III-IV viability, percentage of control, 12.500000000 uM, 48 h, replicate values, source data Fig. 2C",31.7%
same,IC50,"[2]; Plasmodium falciparum, read-out: IC50, P. falciparum gametocyte stage III-IV inhibition, 48 h",7.1 µM
same,Fold reduction in IC50 compared to primaquine alone,[3],> 2 fold
same,viability at 3.125 µM,"[3]; Plasmodium falciparum, read-out: Gametocyte stage V viability, percentage of control, 3.125000000 uM, 48 h, replicate values, source data Fig. 2D",74.7%
same,IC50,"[3]; Plasmodium falciparum, read-out: IC50, P. falciparum gametocyte stage V inhibition",6.8 µM
same,"P. berghei liver stage growth, dose-response data points (Figure 3A)",P. berghei liver stages; 0.015241580 uM,99.66 and 97.59 and 102.8 and 91.81 and 95.85 and 112.3 and 109.1 and 88.24 and 102.7
same,"P. berghei liver stage growth, dose-response data points (Figure 3A)",P. berghei liver stages; 0.045724740 uM,109 and 90.36 and 103.8 and 84.25 and 83.27 and 86.47 and 94.66 and 88.64 and 73.11
same,"P. berghei liver stage growth, dose-response data points (Figure 3A)",P. berghei liver stages; 0.137174210 uM,94.49 and 73.84 and 68.67 and 79.23 and 76.1 and 53.42 and 81.73 and 93.15 and 81.23
same,Figure 3E dose-response value (replicates),P. berghei liver stages; 0.145312500 uM,100.6 and 88.31 and 76.37 and 94.25
same,Figure 3E dose-response value (replicates),P. berghei liver stages; 0.290625000 uM,94.35 and 94.79 and 85.61 and 89.45 and 87.37 and 88.47 and 84.93 and 94.4 and 94.85 and 93.84 and 89.47 and 91.21
same,"P. berghei liver stage growth, dose-response data points (Figure 3A)",P. berghei liver stages; 0.411522630 uM,13.94 and 18.07 and 25.3 and 9.363 and 14.77 and 12.23 and 25.32 and 28.82 and 21.11
same,Figure 3E dose-response value (replicates),P. berghei liver stages; 0.581250000 uM,102.2 and 80.25 and 95.76 and 90.1 and 83.44 and 75.35 and 88.55 and 97.11 and 92.72 and 86.07 and 93.7 and 93.03
same,Figure 3E dose-response value (replicates),P. berghei liver stages; 1.162500000 uM,80.19 and 74.87 and 75.85 and 88.24 and 81.26 and 89.14 and 75.39 and 78.14 and 86.59 and 91.1 and 86.79 and 86.51
same,"P. berghei liver stage growth, dose-response data points (Figure 3A)",P. berghei liver stages; 1.234567900 uM,1.549 (2×) and -1.549 and 0.4997 and 0.5648 and 2.455 and 1.57 and 4.175 and 3.674
same,Figure 3E dose-response value (replicates),P. berghei liver stages; 2.325000000 uM,53.31 and 45.1 and 53.66 and 84.74 and 82.81 and 85.04 and 49.27 and 57.96 and 49.51 and 76.01 and 76.49 and 71.94
same,"P. berghei liver stage growth, dose-response data points (Figure 3A)",P. berghei liver stages; 3.703703700 uM,-1.549 and -0.5164 and -3.614 and 0.04345 and -0.02173 and 0.1086 and 0.3674 and 0.5678 and 1.47
same,Figure 3E dose-response value (replicates),P. berghei liver stages; 4.650000000 uM,7.681 and 6.67 and 6.188 and 47.84 and 67.52 and 65.25 and 8.114 and 8.015 and 9.768 and 28.34 and 27.7 and 22
same,Figure 3E dose-response value (replicates),P. berghei liver stages; 9.300000000 uM,1.871 and 0.7826 and 2.182 and 4.713 and 13.07 and 10.27 and 2.653 and 3.064 and 2.474 and 6.135 and 6.853 and 6.628
same,"P. berghei liver stage growth, dose-response data points (Figure 3A)",P. berghei liver stages; 11.111111100 uM,-2.582 (2×) and -3.614 and -0.0869 and 0.1086 and 0.4997 and 0.5678 and 0.4676 and 0.7682
same,Figure 3E dose-response value (replicates),P. berghei liver stages; 18.600000000 uM,1.555 and 0.8085 and 1.399 and 1.289 and 0.3453 and 0.9092 and 0.9717 and 1.016 and 1.705 and 1.904 and 2.379 and 2.285
same,"P. berghei liver stage growth, dose-response data points (Figure 3A)",P. berghei liver stages; 33.333333300 uM,-2.582 and -1.549 and -0.5164 and -0.02173 and 0.3041 (2×) and 0.3674 (2×) and 0.9686
same,Figure 3E dose-response value (replicates),P. berghei liver stages; 37.200000000 uM,2.576 and 1.923 and 1.736 and -0.9169 and -0.5313 and 0.3203 and 0.31 and 1.213 and 0.6856 and 1.324 and 1.043 and 1.236
same,"P. berghei liver stage growth, dose-response data points (Figure 3A)",P. berghei liver stages; 100.000000000 uM,0.5164 and -1.549 and 1.549 and 0.04345 and 0.4997 and 0.1086 and 0.5678 (2×) and 0.668
same,Fold reduction in IC50 compared to primaquine alone,P. berghei liver stages; 48 h,~ 15 fold
same,IC50,"P. berghei liver stages; Plasmodium berghei, Huh-7, 48 h, read-out: IC50, P. berghei liver stage growth inhibition",0.2 µM
